In PubChem BioAssay (NCI):
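Where inhibition never reached the appropriate level, the endpoint shown equals the highest concentration tested. Otherwise, values were interpolated linearly from a five-concentration, 48-hour dose response in 96-well plates. GI50 is the concentration that inhibits growth by half. TGI denotes the concentration required for complete inhibition of growth.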

Legend:
Assay in all cases: NCI-60 cell line screen, 48 h
[1] = tested on: 786-0 renal
[2] = tested on: A498 renal
[3] = tested on: A549 NSCLC
[4] = tested on: ACHN renal
[5] = tested on: BT-549 breast
[6] = tested on: CAKI-1 renal
[7] = tested on: CCRF-CEM leukemia
[8] = tested on: COLO 205 colon
[9] = tested on: DU-145 prostate
[10] = tested on: EKVX NSCLC
[11] = tested on: HCC-2998 colon
[12] = tested on: HCT-116 colon
[13] = tested on: HCT-15 colon
[14] = tested on: HL-60(TB) leukemia
[15] = tested on: HOP-62 NSCLC
[16] = tested on: HOP-92 NSCLC
[17] = tested on: HS 578T breast
[18] = tested on: HT29 colon
[19] = tested on: IGROV1 ovarian
[20] = tested on: K-562 leukemia
[21] = tested on: KM12 colon
[22] = tested on: LOX IMVI melanoma
[23] = tested on: M14 melanoma
[24] = tested on: MALME-3M melanoma
[25] = tested on: MCF7 breast
[26] = tested on: MDA-MB-231 breast
[27] = tested on: MDA-MB-435
[28] = tested on: MOLT-4 leukemia
[29] = tested on: NCI-H226 lung
[30] = tested on: NCI-H23 lung
[31] = tested on: NCI-H460 lung
[32] = tested on: NCI-H522 lung
[33] = tested on: NCI/ADR-RES ovarian
[34] = tested on: OVCAR-3 ovarian
[35] = tested on: OVCAR-4 ovarian
[36] = tested on: OVCAR-5 ovarian
[37] = tested on: OVCAR-8 ovarian
[38] = tested on: PC-3 prostate
[39] = tested on: RPMI-8226 leukemia
[40] = tested on: RXF 393 renal
[41] = tested on: SF-268 CNS
[42] = tested on: SF-295 CNS
[43] = tested on: SF-539 CNS
[44] = tested on: SK-MEL-2 melanoma
[45] = tested on: SK-MEL-28 melanoma
[46] = tested on: SK-MEL-5 melanoma
[47] = tested on: SK-OV-3 ovarian
[48] = tested on: SN12C renal
[49] = tested on: SNB-19 CNS
[50] = tested on: SNB-75 CNS
[51] = tested on: SW-620 colon
[52] = tested on: T-47D breast
[53] = tested on: TK-10 renal
[54] = tested on: U251 CNS
[55] = tested on: UACC-257 melanoma
[56] = tested on: UACC-62 melanoma
[57] = tested on: UO-31 renal

In the case of `O=C1C=CC2(O)OC/C(=C\c3ccccc3)C(O)=C2C1=O` (stereo not drawn), the GI50 [1] is reported as 1.3 µM, the TGI [1] is reported as 3.04 µM and the GI50 [2] is reported as 10.8 µM. It also gave a TGI [2] of 22.8 µM, a GI50 [3] of 2.52 µM and a TGI [3] of 6.88 µM. It also gave a GI50 [4] of 1.53 µM, a TGI [4] of 2.92 µM and a GI50 [5] of 2.02 µM. The TGI [5] was 6.98 µM, the GI50 [6] was 1.59 µM and the TGI [6] was 3.2 µM. For the same compound, the GI50 [7] was 0.534 µM, the TGI [7] was 25.9 µM and the GI50 [8] was 2.63 µM. The TGI [8] was 6.33 µM, the GI50 [9] was 2.51 µM and the TGI [9] was 9.36 µM. The GI50 [10] was 1.9 µM, the TGI [10] was 5.43 µM and the GI50 [11] was 1.82 µM. For the same compound, the TGI [11] was 3.32 µM, the GI50 [12] was 1.88 µM and the TGI [12] was 4.08 µM. The GI50 [13] was 0.868 µM, the TGI [13] was 3.38 µM and the GI50 [14] was 0.517 µM. The TGI [14] was 7.76 µM, the GI50 [15] was 2.89 µM and the TGI [15] was 9.32 µM. The GI50 [16] was 1.27 µM, the TGI [16] was 3.59 µM and the GI50 [17] was 0.259 µM. For the same compound, the TGI [17] was 3 µM, the GI50 [18] was 3.62 µM and the TGI [18] was 11.8 µM. For the same compound, the GI50 [19] was 1.83 µM, the TGI [19] was 9.7 µM and the GI50 [20] was 0.476 µM. The TGI [20] was > 100 µM, the GI50 [21] was 1.4 µM and the TGI [21] was 3.02 µM. For the same compound, the GI50 [22] was 1.4 µM, the TGI [22] was 2.76 µM and the GI50 [23] was 2.95 µM. The TGI [23] was 11.7 µM, the GI50 [24] was 1.51 µM and the TGI [24] was 5.15 µM. For the same compound, the GI50 [25] was 1.22 µM, the TGI [25] was 10.2 µM and the GI50 [26] was 0.648 µM. It also gave a TGI [26] of 3.51 µM, a GI50 [27] of 1.95 µM and a TGI [27] of 4.74 µM. The GI50 [28] was 0.791 µM, the TGI [28] was 14.4 µM and the GI50 [29] was 3.11 µM. For the same compound, the TGI [29] was 31.4 µM, the GI50 [30] was 1.65 µM and the TGI [30] was 3.38 µM. For the same compound, the GI50 [31] was 1.98 µM, the TGI [31] was 4.32 µM and the GI50 [32] was 0.196 µM. For the same compound, the TGI [32] was 0.535 µM, the GI50 [33] was 2.57 µM and the TGI [33] was 12.7 µM. The GI50 [34] was 1.14 µM, the TGI [34] was 3.23 µM and the GI50 [35] was 2.37 µM. For the same compound, the TGI [35] was 8.87 µM, the GI50 [36] was 2.17 µM and the TGI [36] was 4.5 µM. It also gave a GI50 [37] of 2.71 µM, a TGI [37] of 10.3 µM and a GI50 [38] of 1.35 µM. The TGI [38] was 4.19 µM, the GI50 [39] was 0.285 µM and the TGI [39] was 0.838 µM. For the same compound, the GI50 [40] was 1.5 µM, the TGI [40] was 2.95 µM and the GI50 [41] was 2.1 µM. The TGI [41] was 7.08 µM, the GI50 [42] was 2.58 µM and the TGI [42] was 6.32 µM. The GI50 [43] was 1.24 µM, the TGI [43] was 2.87 µM and the GI50 [44] was 2.02 µM. It also gave a TGI [44] of 5.77 µM, a GI50 [45] of 2.59 µM and a TGI [45] of 6.41 µM. It also gave a GI50 [46] of 1.57 µM, a TGI [46] of 2.98 µM and a GI50 [47] of 15.2 µM. For the same compound, the TGI [47] was > 100 µM, the GI50 [48] was 1.21 µM and the TGI [48] was 8.38 µM. For the same compound, the GI50 [49] was 2.65 µM, the TGI [49] was 9.7 µM and the GI50 [50] was 1.95 µM. It also gave a TGI [50] of 9.68 µM, a GI50 [51] of 1.6 µM and a TGI [51] of 3.68 µM. It also gave a GI50 [52] of 2.47 µM, a TGI [52] of 10.6 µM and a GI50 [53] of 2.99 µM. The TGI [53] was 7.84 µM, the GI50 [54] was 1.39 µM and the TGI [54] was 3.03 µM. It also gave a GI50 [55] of 1.82 µM, a TGI [55] of 4.5 µM and a GI50 [56] of 1.51 µM. It also gave a TGI [56] of 3.76 µM, a GI50 [57] of 0.722 µM and a TGI [57] of 2.03 µM.
`c1ccc2nc(N/N=C3\CCCCC3C3CCCCC3)ccc2c1` (stereo not drawn) was tested, and the GI50 [1] was 7.12 µM, the TGI [1] was 21.6 µM and the GI50 [2] was 11.4 µM. It also gave a TGI [2] of 27.9 µM, a GI50 [3] of 6.26 µM and a TGI [3] of 29.1 µM. It also gave a GI50 [4] of 8.02 µM, a TGI [4] of 20.8 µM and a GI50 [5] of 9.09 µM. For the same compound, the TGI [5] was 22.1 µM, the GI50 [6] was 4.78 µM and the TGI [6] was 25.3 µM. It also gave a GI50 [7] of 2.83 µM, a TGI [7] of 14 µM and a GI50 [8] of 3.26 µM. It also gave a TGI [8] of 12.7 µM, a GI50 [9] of 11.9 µM and a TGI [9] of 24.8 µM. The GI50 [10] was 5.22 µM, the TGI [10] was 20.2 µM and the GI50 [11] was 3.46 µM. The TGI [11] was 14 µM, the GI50 [12] was 3.32 µM and the TGI [12] was 13.5 µM. For the same compound, the GI50 [13] was 3.52 µM, the TGI [13] was 14.8 µM and the GI50 [14] was 3.74 µM. It also gave a TGI [14] of 25.6 µM, a GI50 [15] of 11.8 µM and a TGI [15] of 25.7 µM. It also gave a GI50 [16] of 2.2 µM, a TGI [16] of 10 µM and a GI50 [17] of 10.4 µM. The TGI [17] was 30.9 µM, the GI50 [18] was 3.7 µM and the TGI [18] was 14.6 µM. It also gave a GI50 [19] of 2.92 µM, a TGI [19] of 15.4 µM and a GI50 [20] of 4.85 µM. For the same compound, the TGI [20] was > 100 µM, the GI50 [21] was 4.27 µM and the TGI [21] was 15.7 µM. The GI50 [22] was 3.25 µM, the TGI [22] was 13.1 µM and the GI50 [23] was 10.3 µM. For the same compound, the TGI [23] was 26.5 µM, the GI50 [24] was 2.36 µM and the TGI [24] was 12.9 µM. It also gave a GI50 [25] of 2.46 µM, a TGI [25] of 11.7 µM and a GI50 [26] of 5.49 µM. It also gave a TGI [26] of 20.5 µM, a GI50 [27] of 6.95 µM and a TGI [27] of 21.3 µM. It also gave a GI50 [28] of 3.2 µM, a TGI [28] of 17.1 µM and a GI50 [29] of 6.3 µM. The TGI [29] was 22.9 µM, the GI50 [30] was 3.89 µM and the TGI [30] was 17.3 µM. For the same compound, the GI50 [31] was 3.84 µM, the TGI [31] was 16.5 µM and the GI50 [32] was 4.97 µM. The TGI [32] was 20.4 µM, the GI50 [33] was 5.29 µM and the TGI [33] was 21 µM. For the same compound, the GI50 [34] was 13.9 µM, the TGI [34] was 27 µM and the GI50 [35] was 3.9 µM. For the same compound, the TGI [35] was 22.8 µM, the GI50 [36] was 8.27 µM and the TGI [36] was 21.5 µM. For the same compound, the GI50 [37] was 11.2 µM, the TGI [37] was 29 µM and the GI50 [38] was 3.07 µM. For the same compound, the TGI [38] was 17.6 µM, the GI50 [39] was 2.02 µM and the TGI [39] was 4.76 µM. For the same compound, the GI50 [40] was 9.21 µM, the TGI [40] was 26.9 µM and the GI50 [41] was 10.8 µM. For the same compound, the TGI [41] was 24.9 µM, the GI50 [42] was 2.4 µM and the TGI [42] was 11.8 µM. It also gave a GI50 [43] of 7.69 µM, a TGI [43] of 21.4 µM and a GI50 [44] of 3.48 µM. It also gave a TGI [44] of 16.6 µM, a GI50 [45] of 10.9 µM and a TGI [45] of 24.9 µM. It also gave a GI50 [46] of 2.58 µM, a TGI [46] of 10.4 µM and a GI50 [47] of 14.8 µM. For the same compound, the TGI [47] was 34.3 µM, the GI50 [48] was 6.54 µM and the TGI [48] was 21.1 µM. For the same compound, the GI50 [49] was 11.4 µM, the TGI [49] was 24.6 µM and the GI50 [50] was 11.1 µM. It also gave a TGI [50] of 30.9 µM, a GI50 [51] of 4.12 µM and a TGI [51] of 16.3 µM. It also gave a GI50 [52] of 4.33 µM, a TGI [52] of 21.8 µM and a GI50 [53] of 6.72 µM. The TGI [53] was 19.5 µM, the GI50 [54] was 6.44 µM and the TGI [54] was 20.8 µM. For the same compound, the GI50 [55] was 10.3 µM, the TGI [55] was 27.5 µM and the GI50 [56] was 3.89 µM. It also gave a TGI [56] of 15.6 µM, a GI50 [57] of 2.89 µM and a TGI [57] of 14.4 µM.
